Laboratory results taken from PubChem BioAssay (NCI).
Values joined by “and” are separate entries in the source; they are usually repeats but may differ in a detail not shown here. Equal entries are not always repeated.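 48-hour exposure; five concentrations; linearly interpolated endpoints. GI50 is the concentration that inhibits growth by half. TGI denotes the concentration required for complete inhibition of growth.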

Tests used:
Experiment in all cases: NCI anticancer screen, dose series, 48 h
DU-145 prostate = test system: DU-145 prostate
HS 578T breast = test system: HS 578T breast
MCF7 breast = test system: MCF7 breast
MDA-MB-231 breast = test system: MDA-MB-231 breast
MDA-MB-435 = test system: MDA-MB-435
MDA-N = test system: MDA-N
DMS 114 small cell lung = test system: DMS 114 small cell lung
DMS 273 small cell lung = test system: DMS 273 small cell lung

| Structure (SMILES) | GI50 (DU-145 prostate) | TGI (DU-145 prostate) [µM] | GI50 (HS 578T breast) | TGI (HS 578T breast) [µM] | GI50 (MCF7 breast) [nM] | TGI (MCF7 breast) | GI50 (MDA-MB-231 breast) | TGI (MDA-MB-231 breast) | GI50 (MDA-MB-435) [µM] | TGI (MDA-MB-435) [µM] | TGI (MDA-N) [µM] | TGI (DMS 114 small cell lung) [µM] | TGI (DMS 273 small cell lung) [µM] |
| --- | --- | --- | --- | --- | --- | --- | --- | --- | --- | --- | --- | --- | --- |
| O=[N+]([O-])c1ccc(N2CCN(Cc3ccccc3)CC2)c2c1no[n+]2[O-] | 1.57 µM | 2.98 | 2320 nM | 7.99 | 803 | 2.44 µM | 1.56 µM | 3.08 µM | 1.72 | 3.38 |  |  |  |
| COC(=O)/C=C/c1cc(O)c2c(c1)C(C(=O)OC)C(c1ccc(O)c(O)c1)O2 (configuration not stated) | 0.372 µM and 0.053 µM | > 100 | 468 nM and 61.4 nM | > 100 | 33.7 | 82.1 µM and > 100 µM | 0.192 µM and 0.308 µM | 18.2 µM and 47.1 µM |  | 0.0513 |  |  |  |
| O=C1OC(c2ccco2)=N/C1=C\c1ccc(Cl)c(Cl)c1 |  | > 100 |  | > 100 |  | > 100 µM |  | > 100 µM |  | > 100 | > 100 |  |  |
| O=C(O)c1ccc(S(=O)(=O)c2ccccc2)c([N+](=O)[O-])c1 |  |  |  |  |  |  |  |  |  |  |  | > 100 | > 100 |
| CCNc1nnc(CSc2nc(-c3ccccc3)c(-c3ccccc3)[nH]2)s1 |  |  |  |  |  |  |  |  |  |  |  | 63.1 | 42.9 |
| COc1cc2oc(=O)cc(C)c2cc1[N+](=O)[O-] |  | > 100 |  | > 90.3 |  | > 100 µM |  | 71.6 µM |  | 46.8 | 28.4 |  |  |
| O=C(Cc1nc2ccccc2s1)C(=O)Nc1ccc(Cl)cc1 |  |  |  |  |  |  |  |  |  |  |  | > 100 | > 100 |
| O=C(O)c1ccc(NC(=O)C2C(=O)C(=O)N(c3ccc(C(=O)O)cc3)C2=O)cc1 (configuration not stated) |  |  |  |  |  |  |  |  |  |  |  |  | > 100 |
| C/C(=N\NC(=S)N1CCCCCC1)c1nccnc1C |  |  |  |  |  |  |  |  |  |  |  | 0.0275 | 11.4 |
| O=C1C2C(C(=O)N1O)N(Cc1ccccc1)C(=O)N2Cc1ccccc1 (configuration not stated) |  |  |  |  |  |  |  |  |  |  |  | > 100 |  |
| CC(=O)N1CCC2(C=Nc3ccccc32)CC1 |  |  |  |  |  |  |  |  |  |  |  | > 100 | > 100 |
| Cn1c(=O)oc2cc(C(=O)CSC(=S)N3CCCCCC3)ccc21 |  | > 100 |  | > 100 |  | > 100 µM |  | > 100 µM |  | > 100 | > 100 |  |  |
| O=[N+]([O-])c1cnc(Sc2ccncn2)c([N+](=O)[O-])c1 | 16.7 µM | 30.5 | 19200 nM | 57.2 | 5960 | 24.9 µM | 14.8 µM | 28.4 µM | 4.91 | 18.1 |  |  |  |
| c1ccc(N=C2c3ccccc3CN2c2ccccc2)cc1 |  | > 100 |  | > 100 |  | > 100 µM |  | > 100 µM |  | > 100 | > 100 |  |  |
| Cc1ccc(Nc2nc(NCCO)c3ccccc3n2)cc1C | 10.3 µM | 22 | 12400 nM | 33.8 | 1660 | 16.9 µM | 4.22 µM | 16.1 µM | 4 | 15.9 |  |  |  |
| Nc1ccccc1C#CC#Cc1ccccc1N |  |  |  |  |  |  | 10.9 µM | 24.5 µM | 4.6 | 31.3 |  |  |  |
| C[Si](C)(C)C#CCO[Si](C)(C)C |  | > 100 |  | > 100 |  | > 100 µM |  | > 92.6 µM |  | > 100 | > 100 |  |  |

| Structure (SMILES) | GI50 (DU-145 prostate) | TGI (DU-145 prostate) [µM] | GI50 (HS 578T breast) | TGI (HS 578T breast) [µM] | GI50 (MCF7 breast) [nM] | TGI (MCF7 breast) | GI50 (MDA-MB-231 breast) | TGI (MDA-MB-231 breast) | GI50 (MDA-MB-435) [µM] | TGI (MDA-MB-435) [µM] | TGI (MDA-N) [µM] | TGI (DMS 114 small cell lung) [µM] | TGI (DMS 273 small cell lung) [µM] |
| --- | --- | --- | --- | --- | --- | --- | --- | --- | --- | --- | --- | --- | --- |
| CCOC(=N)CC(=O)Nc1ccc(Cl)cc1 |  |  |  |  |  |  |  |  |  |  |  |  | > 100 |
| CNc1ccccc1C(=O)N/N=C/C=C/c1ccccc1 | 3.47 µM | > 57.6 | 1970 nM | > 100 | 490 | > 100 µM | 4.11 µM | 62 µM |  |  |  |  |  |
| S=CN1CCCCC1 |  | > 100 |  | > 100 |  | > 100 µM |  | > 100 µM |  | > 100 | > 100 |  |  |
| CN(C)c1ccc(-c2cc(=O)c3ccccc3[nH]2)cc1 |  |  |  |  |  |  |  |  |  |  |  | > 100 | > 100 |
| CN/N=C(/Cc1occc(=O)c1O)C(=O)Nc1ccc(C)c(C)c1 |  |  |  |  |  |  |  |  |  |  |  | > 100 |  |
| CC(O)C1OC(O)C2OC(C)(C)OC12 (configuration not stated) |  | > 100 |  | > 100 |  | > 100 µM |  | > 100 µM |  | > 100 | > 100 |  |  |
| COC(=O)c1c[nH]cc1CCc1c[nH]cc1C(=O)OC |  |  |  |  |  |  |  |  |  |  |  |  | > 100 |
| CN(C)CCNC(=O)c1ccc(Nc2nc3ccccc3c3occc23)cc1 | 6.94 µM | 20.7 | 18600 nM | 42.1 | 49300 | > 100 µM | 1.54 µM | 4.14 µM | 1.95 | 3.94 |  |  |  |
| Nc1c(C(=O)Nc2ccccc2)sc2nc3c(cc12)CCCCCC3 | 0.445 µM | 12.3 | 529 nM | 9.64 | 288 | 11.8 µM | 0.892 µM | 43.1 µM | 0.068 | 0.266 |  |  |  |
| CCC1=C(C)/C(=C/c2[nH]c(C)c(C(=O)CCCCC(=O)OC)c2C)N=C1c1ccc[nH]1 | 12.2 µM | 24.6 | 14700 nM | 50.4 | 12100 | 46.4 µM | 4.6 µM | 46.4 µM | 10.4 | 46.1 |  |  |  |
| CC[C@@H]1C[C@@H]2CN3CCc4c([nH]c5ccc(OC)cc45)C(COC(=O)c4ccc(OC)c(OC)c4)(C2)C13 |  |  |  |  |  |  |  |  |  |  |  | 71.8 |  |
| CCCCCCCCCCCCN1C(C)=CS/C1=C\C=C\c1scc(C)[n+]1CCCCCCCCCCCC | 2.38 µM | 10.5 | 1770 nM | 6.62 |  |  |  |  | 1.21 | 3.68 |  |  |  |
| C=C1C(=O)O[C@H]2[C@H]1CC/C(COC(=O)C(=O)c1c[nH]c3ccccc13)=C\CC[C@@]1(C)O[C@@H]21 | 3.12 µM | 11.8 | 4890 nM | > 100 | 2160 | 8.83 µM | 2.46 µM | 5.5 µM | 2.63 | 9.82 |  |  |  |
| COc1ccc(-c2ccc(C3CC(c4ccc(O)cc4)=NN3)o2)c([N+](=O)[O-])c1 (configuration not stated) | 29.4 µM | > 100 | 34700 nM | > 100 | 24400 | 74.4 µM |  |  | 30 | > 100 |  |  |  |
| CN(C)/[N+]([O-])=N/Oc1cc(Nc2cccc(C(=O)O)c2)c([N+](=O)[O-])cc1[N+](=O)[O-] | > 100 µM | > 100 | 34700 nM | > 100 | 36800 | > 100 µM | > 100 µM | > 100 µM | > 100 | > 100 |  |  |  |
| N#CC1=C(N)Oc2cc3c(cc2C1c1cccs1)OCO3 (configuration not stated) | 0.824 µM | > 100 | 411 nM |  | 343 | > 62.3 µM | 5.41 µM | > 100 µM |  |  |  |  |  |
| Cn1c(C(N)=O)cc2c1-c1nc(Nc3ccccc3)ncc1CCC2 | 6.18 µM | 62.7 | 1970 nM | 6.9 | 4410 | > 100 µM | 5.59 µM | > 100 µM | 3.88 | > 100 |  |  |  |
